From patent US20110245242A1, “Heterocyclically Substituted Anilinopyrimides” (Bayer CropScience AG, priority 2008, published 2011)
Values belong to the compound of their own block, whether it stands above or below them.

Experiments:
Assay type in all cases: physicochemical
physchem = conditions: pH 7.8
Method: The log P values were measured in accordance with EEC Directive 79/831 Annex V.A8 by HPLC (High Performance Liquid Chromatography) on reversed-phase columns (C 18) using the methods below: [c] The LC-MS determination in the neutral range was carried out at pH 7.8 using the mobile phases 0.001 molar aqueous ammonium bicarbonate solution and acetonitrile linear gradient from 10% acetonitrile to 95% acetonitrile.

[1] = log P by LC-MS, method [b], acid range pH 2.7; conditions: pH 2.7
Method: The log P values were measured in accordance with EEC Directive 79/831 Annex V.A8 by HPLC (High Performance Liquid Chromatography) on reversed-phase columns (C 18) using the methods below:
[b] The LC-MS determination in the acid range was carried out at pH 2.7 using the mobile phases 0.1% aqueous formic acid and acetonitrile (contains 0.1% formic acid)
linear gradient from 10% acetonitrile to 95% acetonitrile.

[2] = log P by HPLC on reversed-phase columns (C 18), method [a], acidic range pH 2.3; conditions: for log p / log P (pH 2.3): pH 2.3; for chromatographic logP: pH 2.3, log P (pH 2.3)
Method: The log P values were measured in accordance with EEC Directive 79/831 Annex V.A8 by HPLC (High Performance Liquid Chromatography) on reversed-phase columns (C 18) using the methods below: [a] The determination was carried out in the acidic range at pH 2.3 using the mobile phases 0.1% aqueous phosphoric acid and acetronitrile linear gradient from 10% acetonitrile to 95% acetronitrile.

log p (physchem): 3.24[c];
log p [1]: 2.45[b]
SMILES: O=C1CCCN1c1cccc(Nc2ncc(C(F)(F)F)c(N3CCCC3)n2)c1 [Example 301]

log p [1]: 1.51[b]
log p [2]: 1.51[a];
SMILES: COCC(C)Nc1nc(Nc2ccc(N3CCCC3=O)cc2)ncc1Cl (stereo not shown) [Example 1]

SMILES: CCC1CC(C)C(=O)N1c1cccc(Nc2ncc(Br)c(NCC3CC3)n2)c1 (stereo not shown) [Example 209]
log p (physchem): 3.69[c];
log p [1]: 2.41[b]

SMILES: Cc1cc(Nc2ncc(C(F)(F)F)c(NC3CC3)n2)cc(N2CCCC2=O)c1 [Example 310]
log p (physchem): 2.98[c];
log p [1]: 2.51[b]

log p (physchem): 3.16[c];
log p [1]: 2.15[b]
SMILES: CC1CC(Nc2nc(Nc3cccc(N4C(=O)CCC4C)c3)ncc2Cl)C1 (stereo not shown) [Example 253]

SMILES: CC1CCC(=O)N1c1cccc(Nc2ncc(Cl)c(NC3CC3)n2)c1 (stereo not shown) [Example 126]
log p [1]: 2.59[b]
log p [2]: 2.59[a];

log p (physchem): 2.65[c]
SMILES: CCOC(=O)[C@@H]1CCC(=O)N1c1cccc(Nc2ncc(Br)c(NC3CC3)n2)c1 [Example 191]

log p (physchem): 3.09[c]
SMILES: CSCC(C)(C)Nc1nc(Nc2ccc(N3CCOC3=O)cc2)ncc1Cl [Example 40]

SMILES: CC1CCC(=O)N1c1cccc(Nc2ncc(Cl)c(NC3CC3)n2)c1 (stereo not shown) [Example 125]
log p [1]: 2.59[b]
log p [2]: 2.59[a];

log P (pH 2.3) [2]: 2.76
chromatographic logP [2]: 2.74
SMILES: O=C1OCCN1c1ccc(Nc2ncc(C(F)(F)F)c(Cl)n2)cc1 [VI-4, 3-(4-{[4-Chloro-5-(trifluoromethyl)pyrimidin-2-yl]amino}phenyl)-1,3-oxazolidin-2-one]

chromatographic logP [2]: 1.99
SMILES: COc1cc(N2CCCC2=O)cc([N+](=O)[O-])c1 [1-(3-Methoxy-5-nitrophenyl)pyrrolidin-2-one]

chromatographic logP [2]: 2.7
SMILES: Brc1ccc(Nc2ncc(Br)c(NC3CC3)n2)cc1 [VII-11, 5-Bromo-N^2-(4-bromophenyl)-N^4-cyclopropylpyrimidine-2,4-diamine]

SMILES: CC(C)[C@H]1COC(=O)N1c1cccc(Nc2ncc(Cl)c(N(C)C3CC3)n2)c1 [Example 115]
log p [2]: 3.09[a]

log p (physchem): 2.99[c]
SMILES: CC1CC(Nc2nc(Nc3cccc(N4CCOC4=O)c3)ncc2Cl)C1 (stereo not shown) [Example 256]

chromatographic logP [2]: 3.2
SMILES: CC1CC(Nc2nc(Cl)ncc2Cl)C1 (stereo not shown) [Example V-39, 2,5-Dichloro-N-(3-methylcyclobutyl)pyrimidin-4-amine]

SMILES: CC(C)Nc1nc(Nc2cccc(N3C(=O)OCC3C)c2)ncc1Br (stereo not shown) [Example 262]
log p (physchem): 2.83[c];

log p [1]: 2.86[b]
log p [2]: 2.86[a];
SMILES: C[C@H]1CCN(c2cccc(Nc3ncc(Cl)c(NC4CC4)n3)c2)C1=O [Example 124]

SMILES: CC1CCC(=O)N1c1cccc(Nc2ncc(Cl)c(NC3CC3)n2)c1 (stereo not shown) [Example 30]
log p [1]: 1.6[b]
log p [2]: 1.6[a];

chromatographic logP [2]: 3.34
SMILES: Brc1cnc(Nc2cccc(I)c2)nc1NC1CC1 [VII-2, 5-Bromo-N^4-cyclopropyl-N^2-(3-iodophenyl)pyrimidine-2,4-diamine]

chromatographic logP [2]: 2.98
SMILES: O=C1CCCN1c1cccc(Nc2ncc(C(F)(F)F)c(Cl)n2)c1 [VI-1, 1-(3-{[4-Chloro-5-(trifluoromethyl)pyrimidin-2-yl]amino}phenyl)pyrrolidin-2-one]

chromatographic logP [2]: 1.99
SMILES: Clc1ncc(Cl)c(N2CCOCC2)n1 [Example V-33, 4-(2,5-Dichloropyrimidin-4-yl)morpholine]

chromatographic logP [2]: 2.53
SMILES: CC1CC1Nc1nc(Cl)ncc1Cl (stereo not shown) [Example V-40, 2,5-Dichloro-N-(2-methylcyclopropyl)pyrimidin-4-amine]

chromatographic logP [2]: 2.28
SMILES: O=C1CCCN1c1cccc(Nc2ncc(C(F)F)c(F)n2)c1 [VI-3, 1-(3-{[5-(Difluoromethyl)-4-fluoropyrimidin-2-yl]amino}phenyl)pyrrolidin-2-one]

chromatographic logP [2]: 1.31
SMILES: CCC1CC(C)C(=O)N1c1cccc(N)c1 (stereo not shown) [1-(3-Aminophenyl)-5-ethyl-3-methylpyrrolidin-2-one]

log p [1]: 1.6[b]
log p [2]: 1.6[a];
SMILES: COCC(C)Nc1nc(Nc2cccc(N3C(=O)OCC3C)c2)ncc1Cl (stereo not shown) [Example 118]

chromatographic logP [2]: 2.55
SMILES: Clc1cnc(Nc2ccc(Br)cc2)nc1NC1CC1 [VII-8, N^2-(4-Bromophenyl)-5-chloro-N^4-cyclopropylpyrimidine-2,4-diamine]

chromatographic logP [2]: 2.91
SMILES: Clc1cnc(Nc2cccc(Br)c2)nc1NC1CC1 [VII-5, N^2-(3-Bromophenyl)-5-chloro-N^4-cyclopropylpyrimidine-2,4-diamine]

chromatographic logP [2]: 3.18
SMILES: Brc1ccc(Nc2ncc(Br)c(NC3CCC3)n2)cc1 [VII-10, 5-Bromo-N^2-(4-bromophenyl)-N^4-cyclobutylpyrimidine-2,4-diamine]

log p [1]: 2.86[b]
log p [2]: 2.86[a];
SMILES: C[C@@H]1CCN(c2cccc(Nc3ncc(Cl)c(NC4CC4)n3)c2)C1=O [Example 123]

chromatographic logP [2]: 4.6
SMILES: FC(F)(F)c1cc(Br)cc(Nc2ncc(Cl)c(NC3CC3)n2)c1 [VII-7, N^2-[3-Bromo-5-(trifluoromethyl)phenyl]-5-chloro-N^4-cyclopropylpyrimidine-2,4-diamine]

log p (physchem): 2.18[c];
SMILES: COc1ccc(Nc2ncc(Cl)c(NC3CC3)n2)cc1N1CCCC1=O [Example 328]

chromatographic logP [2]: 1.83
SMILES: COCC(C)Nc1nc(Cl)ncc1C#N (stereo not shown) [Example V-30, 2-Chloro-4-[(1-methoxypropan-2-yl)-amino]pyrimidine-5-carbonitrile]

chromatographic logP [2]: 0.52
SMILES: CC1CCC(=O)N1c1cccc(N)c1 (stereo not shown) [1-(3-Aminophenyl)-5-methylpyrrolidin-2-one]

chromatographic logP [2]: 3.1
SMILES: CCC1CC1Nc1nc(Cl)ncc1Cl (stereo not shown) [Example V-43, 2,5-Dichloro-N-(2-ethylcyclopropyl)pyrimidin-4-amine]

SMILES: CC1COC(=O)N1c1cccc(Nc2ncc(C(F)(F)F)c(NC3CC3)n2)c1 (stereo not shown) [Example 261]
log p (physchem): 2.7[c];

chromatographic logP [2]: 0.31
SMILES: Nc1ccc(F)c(N2CCCC2=O)c1 [1-(5-Amino-2-fluorophenyl)pyrrolidin-2-one]

log p [2]: 1.56[a]
SMILES: C[C@@H]1COC(=O)N1c1cccc(Nc2ncc(Cl)c(NC3CCC3)n2)c1 [Example 102]

chromatographic logP [2]: 1.07
SMILES: Nc1cccc(N2C(=O)CCC2C(F)(F)F)c1 (stereo not shown) [1-(3-Aminophenyl)-5-(trifluoromethyl)pyrrolidin-2-one]

log p [2]: 0.98[a]
SMILES: O=C1CCC(CO)N1c1cccc(Nc2ncc(Cl)c(NC3CC3)n2)c1 (stereo not shown) [Example 86]

SMILES: CCC1COC(=O)N1c1cccc(Nc2ncc(Br)c(NC3CC3)n2)c1 (stereo not shown) [Example 32]
log p [2]: 2.01[a]

chromatographic logP [2]: 0.79
SMILES: Nc1cc(N2C(=O)CCC2=O)ccc1Cl [1-(3-Amino-4-chlorophenyl)pyrrolidine-2,5-dione]

chromatographic logP [2]: 2.23
SMILES: CCC(CC(C)C(=O)OC)[N+](=O)[O-] (stereo not shown) [Methyl 2-methyl-4-nitrohexanoate]

chromatographic logP [2]: 2.84
SMILES: O=C1CCCN1c1cc(Nc2ncc(C(F)(F)F)c(Cl)n2)ccc1F [VI-2, 1-(5-{[4-Chloro-5-(trifluoromethyl)pyrimidin-2-yl]amino}-2-fluorophenyl)pyrrolidin-2-one]

chromatographic logP [2]: 1.82
SMILES: CC1CCN(Cc2cccc([N+](=O)[O-])c2)C1=O (stereo not shown) [3-Methyl-1-(3-nitrobenzyl)pyrrolidin-2-one]

chromatographic logP [2]: 2.82
SMILES: CN(c1nc(Cl)ncc1Cl)C1CC1 [Example V-26, 2,5-Dichloro-N-methyl-N-cyclopropylpyrimidin-4-amine]

log P (pH 2.3) [2]: 0.96
chromatographic logP [2]: 1.02
SMILES: CCC1CC(C)C(=O)N1 (stereo not shown) [5-Ethyl-3-methylpyrrolidin-2-one]

SMILES: CC1COC(=O)N1c1cccc(Nc2ncc(Cl)c(NC3CCC3)n2)c1 (stereo not shown) [Example 57]
log p [2]: 1.81[a]

chromatographic logP [2]: 2.78
SMILES: Clc1ncc(Cl)c(N2CCCC2)n1 [Example V-34, 2,5-Dichloro-4-(pyrrolidin-1-yl)pyrimidine]

SMILES: O=C1CCCCCN1c1cccc(Nc2ncc(Br)c(NC3CC3)n2)c1 [Example 54]
log p [2]: 1.82[a]

SMILES: CC1CCN(c2cccc(Nc3ncc(Cl)c(NC4CC4)n3)c2)C1=O (stereo not shown) [Example 26]
log p [2]: 1.76[a]

SMILES: CC(C)C1COC(=O)N1c1cccc(Nc2ncc(Cl)c(NC3CC3)n2)c1 (stereo not shown) [Example 39]
log p [2]: 2.13[a]

log p (physchem): 2.32[c];
SMILES: O=C1CCC(=O)N1Cc1cccc(Nc2ncc(Cl)c(NC3CC3)n2)c1 [Example 235]

chromatographic logP [2]: 2.73
SMILES: Clc1cnc(Nc2ccc(I)cc2)nc1NC1CC1 [5-Chloro-N^4-cyclopropyl-N^2-(4-iodophenyl)pyrimidine-2,4-diamine]

chromatographic logP [2]: 1.18
SMILES: CC(C)[C@@H]1COC(=O)N1c1cccc(N)c1 [(4R)-3-(3-Aminophenyl)-4-isopropyl-1,3-oxazolidin-2-one]

chromatographic logP [2]: 2.91
SMILES: Cc1ccc(Nc2ncc(Cl)c(NC3CC3)n2)cc1Br [VII-4, 5-Chloro-N^2-[3-bromo-4-(methyl)phenyl]-N^4-cyclopropylpyrimidine-2,4-diamine]

log p [2]: 1.65[a]
SMILES: CCC(C)Nc1nc(Nc2ccc(N3CCCC3=O)cc2)ncc1Cl (stereo not shown) [Example 7]

chromatographic logP [2]: 0.27
SMILES: C[C@@H]1COC(=O)N1c1cccc(N)c1 [(4R)-3-(3-Aminophenyl)-4-methyl-1,3-oxazolidin-2-one]

chromatographic logP [2]: 0.86
SMILES: CC1(C)CC(=O)N(c2cccc(N)c2)C1=O [1-(3-Aminophenyl)-3,3-dimethylpyrrolidine-2,5-dione]

log P (pH 2.3) [2]: 1.96
SMILES: FC(F)CNc1nc(Cl)ncc1Cl [Example V-4, 2,5-Dichloro-N-(2,2-difluoroethyl)pyrimidin-4-amine]

chromatographic logP [2]: 1.47
SMILES: O=C1CCCN1c1cc([N+](=O)[O-])ccc1F [1-(2-Fluoro-5-nitrophenyl)pyrrolidin-2-one]
